Experiments:
[1] = target: T1, Phosphatidylinositol 4,5-bisphosphate 3-kinase catalytic subunit delta isoform (Homo sapiens, UniProt O00329); assay: Inhibition of PI3Kdelta (unknown origin) expressed in baculovirus expression system using L-alpha-phosphatidylinositol as substrate by luminescence assay
T1 sequence (O00329 whole entry): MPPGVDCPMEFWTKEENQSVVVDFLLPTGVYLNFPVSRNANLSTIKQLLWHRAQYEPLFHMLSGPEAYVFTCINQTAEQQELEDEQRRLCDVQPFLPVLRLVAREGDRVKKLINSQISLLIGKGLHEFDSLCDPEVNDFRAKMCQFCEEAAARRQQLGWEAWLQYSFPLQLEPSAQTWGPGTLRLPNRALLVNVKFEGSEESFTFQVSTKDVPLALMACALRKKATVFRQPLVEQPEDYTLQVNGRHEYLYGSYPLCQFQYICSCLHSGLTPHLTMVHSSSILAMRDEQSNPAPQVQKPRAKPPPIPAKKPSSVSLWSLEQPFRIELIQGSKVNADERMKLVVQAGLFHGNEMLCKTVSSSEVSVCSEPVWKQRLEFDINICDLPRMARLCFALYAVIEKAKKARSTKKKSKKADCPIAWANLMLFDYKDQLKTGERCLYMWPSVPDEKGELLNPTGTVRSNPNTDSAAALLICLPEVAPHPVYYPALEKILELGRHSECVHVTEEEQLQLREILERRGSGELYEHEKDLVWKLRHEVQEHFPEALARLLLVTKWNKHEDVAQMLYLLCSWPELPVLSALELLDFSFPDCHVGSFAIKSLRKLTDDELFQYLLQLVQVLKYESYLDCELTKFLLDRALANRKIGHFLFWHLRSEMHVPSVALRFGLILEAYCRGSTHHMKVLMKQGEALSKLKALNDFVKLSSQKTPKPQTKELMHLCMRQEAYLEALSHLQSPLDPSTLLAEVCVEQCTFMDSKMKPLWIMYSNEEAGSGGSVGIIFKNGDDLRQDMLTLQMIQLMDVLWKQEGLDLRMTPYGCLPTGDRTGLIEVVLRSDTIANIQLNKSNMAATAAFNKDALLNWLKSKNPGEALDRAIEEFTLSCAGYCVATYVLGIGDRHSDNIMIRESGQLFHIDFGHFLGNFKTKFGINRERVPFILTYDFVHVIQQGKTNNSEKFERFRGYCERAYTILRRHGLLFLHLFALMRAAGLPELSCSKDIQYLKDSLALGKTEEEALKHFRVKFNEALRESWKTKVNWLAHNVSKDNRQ

SCC-4 = assay: Anticancer activity against human SCC-4 cells assessed as growth inhibition; type: functional, cell-based
[2] = Anticancer activity against human TU183 cells assessed as growth inhibition; type: functional, cell-based
KB = assay: Anticancer activity against human KB cells assessed as growth inhibition; type: functional, cell-based
[3] = target: T2, Phosphatidylinositol 4,5-bisphosphate 3-kinase catalytic subunit alpha isoform (Homo sapiens, UniProt P42336); assay: Inhibition of PI3Kalpha (unknown origin) expressed in baculovirus expression system using L-alpha-phosphatidylinositol as substrate by luminescence assay
Histone deacetylase 1 = Histone deacetylase 1 (Homo sapiens, UniProt Q13547); assay: Inhibition of full-length HDAC1 (unknown origin) by Color-de-Lys assay
[4] = target: Phosphatidylinositol 4,5-bisphosphate 3-kinase catalytic subunit gamma isoform (Homo sapiens, UniProt P48736); assay: Inhibition of PI3Kgamma (unknown origin) expressed in baculovirus expression system using L-alpha-phosphatidylinositol as substrate by luminescence assay
[5] = target: T1, Phosphatidylinositol 4,5-bisphosphate 3-kinase catalytic subunit delta isoform; assay: Inhibition of full-length PI3Kdelta (unknown origin) expressed in baculovirus infected Sf9 cells by ADP-Glo luminescent kinase assay
[6] = target: T2, Phosphatidylinositol 4,5-bisphosphate 3-kinase catalytic subunit alpha isoform; assay: Inhibition of full-length PI3Kalpha (unknown origin) expressed in baculovirus infected Sf9 cells by ADP-Glo luminescent kinase assay
[7] = target: Phosphatidylinositol 4,5-bisphosphate 3-kinase catalytic subunit beta isoform (Homo sapiens, UniProt P42338); assay: Inhibition of full-length PI3Kbeta (unknown origin) expressed in baculovirus infected Sf9 cells by ADP-Glo luminescent kinase assay
[8] = target: T3, Polyamine deacetylase HDAC10 (Homo sapiens, UniProt Q969S8); assay: Inhibition of full-length HDAC10 (unknown origin) by Color-de-Lys assay
T3 sequence (Q969S8 whole entry): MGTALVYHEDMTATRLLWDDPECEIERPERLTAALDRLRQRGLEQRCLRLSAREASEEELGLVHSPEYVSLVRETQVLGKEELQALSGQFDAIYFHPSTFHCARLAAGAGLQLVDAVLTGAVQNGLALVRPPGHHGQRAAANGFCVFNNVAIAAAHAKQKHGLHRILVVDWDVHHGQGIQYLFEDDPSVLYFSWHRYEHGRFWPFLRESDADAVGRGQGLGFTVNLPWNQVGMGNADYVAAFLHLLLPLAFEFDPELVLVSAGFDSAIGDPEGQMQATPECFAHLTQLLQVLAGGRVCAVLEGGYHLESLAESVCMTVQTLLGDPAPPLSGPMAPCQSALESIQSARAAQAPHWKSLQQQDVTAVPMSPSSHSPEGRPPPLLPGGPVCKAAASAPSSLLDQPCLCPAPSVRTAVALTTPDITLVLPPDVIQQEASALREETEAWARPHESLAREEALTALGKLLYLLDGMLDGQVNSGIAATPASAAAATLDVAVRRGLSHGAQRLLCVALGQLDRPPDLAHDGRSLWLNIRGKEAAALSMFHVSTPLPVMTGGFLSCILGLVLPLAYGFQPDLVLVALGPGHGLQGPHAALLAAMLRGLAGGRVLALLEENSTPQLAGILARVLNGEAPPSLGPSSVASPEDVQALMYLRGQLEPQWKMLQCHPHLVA

[9] = target: T4, Protein deacetylase HDAC6 (Homo sapiens, UniProt Q9UBN7); assay: Inhibition of full-length HDAC6 (unknown origin) by Color-de-Lys assay
T4 sequence (Q9UBN7 whole entry): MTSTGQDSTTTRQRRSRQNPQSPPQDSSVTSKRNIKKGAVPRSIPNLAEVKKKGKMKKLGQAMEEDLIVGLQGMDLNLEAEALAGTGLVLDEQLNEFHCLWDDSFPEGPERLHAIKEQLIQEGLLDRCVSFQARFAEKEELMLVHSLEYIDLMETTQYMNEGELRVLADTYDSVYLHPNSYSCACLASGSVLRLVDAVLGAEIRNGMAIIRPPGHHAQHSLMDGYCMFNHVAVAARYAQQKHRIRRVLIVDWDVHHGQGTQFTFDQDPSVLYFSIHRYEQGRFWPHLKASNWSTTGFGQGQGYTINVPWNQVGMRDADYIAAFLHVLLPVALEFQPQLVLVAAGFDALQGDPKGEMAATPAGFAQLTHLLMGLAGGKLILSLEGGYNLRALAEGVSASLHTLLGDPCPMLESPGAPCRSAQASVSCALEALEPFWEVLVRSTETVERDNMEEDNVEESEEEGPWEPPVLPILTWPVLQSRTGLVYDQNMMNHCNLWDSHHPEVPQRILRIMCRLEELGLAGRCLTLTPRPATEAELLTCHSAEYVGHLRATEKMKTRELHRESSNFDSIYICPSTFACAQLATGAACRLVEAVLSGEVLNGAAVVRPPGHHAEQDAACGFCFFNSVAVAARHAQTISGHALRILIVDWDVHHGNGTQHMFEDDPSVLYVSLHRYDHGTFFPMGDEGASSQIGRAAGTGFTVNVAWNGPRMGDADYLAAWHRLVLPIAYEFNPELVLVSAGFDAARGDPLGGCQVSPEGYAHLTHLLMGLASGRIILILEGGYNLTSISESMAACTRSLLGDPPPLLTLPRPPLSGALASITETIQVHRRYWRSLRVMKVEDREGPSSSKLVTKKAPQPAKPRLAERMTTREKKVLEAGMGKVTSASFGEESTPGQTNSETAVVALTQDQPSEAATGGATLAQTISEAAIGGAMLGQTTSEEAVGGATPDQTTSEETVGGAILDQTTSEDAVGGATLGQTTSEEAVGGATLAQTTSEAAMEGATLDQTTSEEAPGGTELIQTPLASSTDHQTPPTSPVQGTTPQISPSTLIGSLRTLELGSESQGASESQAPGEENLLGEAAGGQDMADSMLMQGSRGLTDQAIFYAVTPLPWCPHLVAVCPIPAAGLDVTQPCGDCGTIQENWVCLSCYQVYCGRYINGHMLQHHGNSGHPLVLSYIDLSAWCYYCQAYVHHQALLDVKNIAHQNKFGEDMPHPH

[10] = Inhibition of mTORC1 (unknown origin); set-up: species or system Homo sapiens
[11] = Inhibition of PI3K (unknown origin); set-up: species or system Homo sapiens
[12] = target: T1, Phosphatidylinositol 4,5-bisphosphate 3-kinase catalytic subunit delta isoform; assay: Inhibition of PI3Kdelta (unknown origin)
[13] = target: T2, Phosphatidylinositol 4,5-bisphosphate 3-kinase catalytic subunit alpha isoform; assay: Inhibition of PI3Kalpha (unknown origin)
[14] = target: T5, Mitogen-activated protein kinase; ERK1/ERK2 (Homo sapiens) (UniProt P27361+P28482); assay: Inhibition of Erk1/2 phosphorylation in human PANC-1 cells at 5 uM relative to control; type: cell-based
[15] = target: T5, Mitogen-activated protein kinase; ERK1/ERK2 (Homo sapiens); assay: Inhibition of Erk1/2 phosphorylation in human A549 cells; type: cell-based; conditions: concentration not given here
A549 = assay: Anticancer activity against human A549 cells assessed as cell killing activity at 10 uM relative to control; type: functional
PANC-1 = assay: Anticancer activity against human PANC-1 cells assessed as cell killing activity at 25 uM relative to control; type: functional

Sequence of Histone deacetylase 1 (Q13547 whole entry, canonical isoform): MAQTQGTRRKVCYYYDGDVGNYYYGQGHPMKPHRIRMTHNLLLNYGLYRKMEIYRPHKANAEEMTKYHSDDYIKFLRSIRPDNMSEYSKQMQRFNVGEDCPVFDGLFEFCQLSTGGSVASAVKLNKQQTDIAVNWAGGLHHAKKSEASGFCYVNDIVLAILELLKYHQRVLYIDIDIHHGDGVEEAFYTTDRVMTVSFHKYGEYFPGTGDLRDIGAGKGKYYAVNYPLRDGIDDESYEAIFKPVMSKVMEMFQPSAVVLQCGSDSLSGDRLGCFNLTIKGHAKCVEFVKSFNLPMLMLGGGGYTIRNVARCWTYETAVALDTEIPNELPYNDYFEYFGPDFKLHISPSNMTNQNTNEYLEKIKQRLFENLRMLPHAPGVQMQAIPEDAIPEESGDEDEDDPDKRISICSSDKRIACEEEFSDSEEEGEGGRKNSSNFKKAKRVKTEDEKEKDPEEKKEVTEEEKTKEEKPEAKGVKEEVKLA
T2 sequence (P42336 whole entry, canonical isoform): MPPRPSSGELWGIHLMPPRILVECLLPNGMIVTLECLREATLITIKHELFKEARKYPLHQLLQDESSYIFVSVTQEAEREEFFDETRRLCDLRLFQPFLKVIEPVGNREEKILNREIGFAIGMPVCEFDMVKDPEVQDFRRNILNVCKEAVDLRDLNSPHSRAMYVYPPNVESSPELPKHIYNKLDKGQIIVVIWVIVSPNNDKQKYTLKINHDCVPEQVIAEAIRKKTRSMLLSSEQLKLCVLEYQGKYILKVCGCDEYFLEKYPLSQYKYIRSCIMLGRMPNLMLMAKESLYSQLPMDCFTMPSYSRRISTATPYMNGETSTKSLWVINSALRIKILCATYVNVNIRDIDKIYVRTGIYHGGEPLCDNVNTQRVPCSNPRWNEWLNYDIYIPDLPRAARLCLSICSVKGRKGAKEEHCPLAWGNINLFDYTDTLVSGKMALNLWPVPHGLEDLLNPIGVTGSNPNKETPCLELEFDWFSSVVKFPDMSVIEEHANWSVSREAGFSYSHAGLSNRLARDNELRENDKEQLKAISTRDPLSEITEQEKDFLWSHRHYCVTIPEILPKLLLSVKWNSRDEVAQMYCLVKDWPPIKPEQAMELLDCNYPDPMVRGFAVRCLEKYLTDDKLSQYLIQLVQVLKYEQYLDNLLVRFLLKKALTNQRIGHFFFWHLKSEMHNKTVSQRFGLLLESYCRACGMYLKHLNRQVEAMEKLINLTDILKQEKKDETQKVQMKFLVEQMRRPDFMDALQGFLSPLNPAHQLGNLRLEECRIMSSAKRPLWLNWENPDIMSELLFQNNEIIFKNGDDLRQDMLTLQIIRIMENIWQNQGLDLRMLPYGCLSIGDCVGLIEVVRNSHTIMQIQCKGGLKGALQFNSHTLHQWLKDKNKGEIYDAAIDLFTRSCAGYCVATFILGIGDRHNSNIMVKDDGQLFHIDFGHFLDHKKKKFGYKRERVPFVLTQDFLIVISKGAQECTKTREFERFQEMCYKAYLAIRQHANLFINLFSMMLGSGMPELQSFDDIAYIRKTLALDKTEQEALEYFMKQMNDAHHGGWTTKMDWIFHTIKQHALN
T5 sequence (P27361 whole entry, looked up): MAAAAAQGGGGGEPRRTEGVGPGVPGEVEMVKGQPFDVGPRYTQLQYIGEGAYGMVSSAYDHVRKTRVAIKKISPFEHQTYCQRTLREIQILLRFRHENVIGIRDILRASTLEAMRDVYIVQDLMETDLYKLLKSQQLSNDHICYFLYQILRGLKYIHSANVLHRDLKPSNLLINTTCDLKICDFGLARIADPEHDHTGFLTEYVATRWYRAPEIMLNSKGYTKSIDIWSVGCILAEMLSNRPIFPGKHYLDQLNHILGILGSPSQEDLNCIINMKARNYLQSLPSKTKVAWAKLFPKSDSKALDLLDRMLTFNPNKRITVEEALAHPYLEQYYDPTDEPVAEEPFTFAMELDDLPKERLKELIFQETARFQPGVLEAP
T5 sequence (P28482 whole entry, looked up): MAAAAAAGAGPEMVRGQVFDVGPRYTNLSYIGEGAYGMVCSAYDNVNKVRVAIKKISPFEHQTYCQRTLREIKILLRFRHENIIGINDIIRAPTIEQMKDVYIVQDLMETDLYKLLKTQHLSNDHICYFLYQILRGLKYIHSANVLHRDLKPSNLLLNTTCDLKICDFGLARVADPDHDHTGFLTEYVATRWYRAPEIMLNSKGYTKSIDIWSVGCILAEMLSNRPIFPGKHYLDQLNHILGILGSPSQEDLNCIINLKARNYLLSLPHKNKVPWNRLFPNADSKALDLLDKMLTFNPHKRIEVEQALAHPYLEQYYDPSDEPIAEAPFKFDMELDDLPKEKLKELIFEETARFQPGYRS
Sequence of Phosphatidylinositol 4,5-bisphosphate 3-kinase catalytic subunit gamma isoform (P48736 whole entry, canonical isoform): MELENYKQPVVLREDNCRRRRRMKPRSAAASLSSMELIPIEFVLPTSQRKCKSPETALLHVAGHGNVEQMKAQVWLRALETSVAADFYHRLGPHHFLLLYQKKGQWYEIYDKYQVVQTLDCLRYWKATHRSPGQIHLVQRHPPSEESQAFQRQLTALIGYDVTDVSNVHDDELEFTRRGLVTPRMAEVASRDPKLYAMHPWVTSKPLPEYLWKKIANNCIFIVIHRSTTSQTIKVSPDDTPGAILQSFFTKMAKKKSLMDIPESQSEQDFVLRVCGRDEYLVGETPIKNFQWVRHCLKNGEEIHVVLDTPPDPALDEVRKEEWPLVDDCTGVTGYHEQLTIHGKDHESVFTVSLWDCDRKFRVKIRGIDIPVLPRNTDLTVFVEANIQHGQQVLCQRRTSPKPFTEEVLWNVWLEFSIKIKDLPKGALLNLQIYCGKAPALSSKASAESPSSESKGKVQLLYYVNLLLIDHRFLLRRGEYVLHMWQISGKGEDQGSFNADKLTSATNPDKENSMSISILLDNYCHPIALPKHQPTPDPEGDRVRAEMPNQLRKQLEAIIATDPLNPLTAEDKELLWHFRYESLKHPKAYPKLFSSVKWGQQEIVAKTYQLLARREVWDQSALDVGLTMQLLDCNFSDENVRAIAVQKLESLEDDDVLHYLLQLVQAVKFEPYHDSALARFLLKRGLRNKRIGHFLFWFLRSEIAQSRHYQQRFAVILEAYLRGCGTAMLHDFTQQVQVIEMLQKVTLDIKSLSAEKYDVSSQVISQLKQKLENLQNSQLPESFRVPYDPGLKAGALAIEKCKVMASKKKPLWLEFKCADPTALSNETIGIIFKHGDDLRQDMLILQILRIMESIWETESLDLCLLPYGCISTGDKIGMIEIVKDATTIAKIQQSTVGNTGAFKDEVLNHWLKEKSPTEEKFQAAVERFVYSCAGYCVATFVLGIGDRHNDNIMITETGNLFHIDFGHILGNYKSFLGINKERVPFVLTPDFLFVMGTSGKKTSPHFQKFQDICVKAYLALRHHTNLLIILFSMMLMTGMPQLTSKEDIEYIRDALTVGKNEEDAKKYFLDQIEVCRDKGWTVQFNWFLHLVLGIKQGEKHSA
Sequence of Phosphatidylinositol 4,5-bisphosphate 3-kinase catalytic subunit beta isoform (P42338 whole entry, canonical isoform): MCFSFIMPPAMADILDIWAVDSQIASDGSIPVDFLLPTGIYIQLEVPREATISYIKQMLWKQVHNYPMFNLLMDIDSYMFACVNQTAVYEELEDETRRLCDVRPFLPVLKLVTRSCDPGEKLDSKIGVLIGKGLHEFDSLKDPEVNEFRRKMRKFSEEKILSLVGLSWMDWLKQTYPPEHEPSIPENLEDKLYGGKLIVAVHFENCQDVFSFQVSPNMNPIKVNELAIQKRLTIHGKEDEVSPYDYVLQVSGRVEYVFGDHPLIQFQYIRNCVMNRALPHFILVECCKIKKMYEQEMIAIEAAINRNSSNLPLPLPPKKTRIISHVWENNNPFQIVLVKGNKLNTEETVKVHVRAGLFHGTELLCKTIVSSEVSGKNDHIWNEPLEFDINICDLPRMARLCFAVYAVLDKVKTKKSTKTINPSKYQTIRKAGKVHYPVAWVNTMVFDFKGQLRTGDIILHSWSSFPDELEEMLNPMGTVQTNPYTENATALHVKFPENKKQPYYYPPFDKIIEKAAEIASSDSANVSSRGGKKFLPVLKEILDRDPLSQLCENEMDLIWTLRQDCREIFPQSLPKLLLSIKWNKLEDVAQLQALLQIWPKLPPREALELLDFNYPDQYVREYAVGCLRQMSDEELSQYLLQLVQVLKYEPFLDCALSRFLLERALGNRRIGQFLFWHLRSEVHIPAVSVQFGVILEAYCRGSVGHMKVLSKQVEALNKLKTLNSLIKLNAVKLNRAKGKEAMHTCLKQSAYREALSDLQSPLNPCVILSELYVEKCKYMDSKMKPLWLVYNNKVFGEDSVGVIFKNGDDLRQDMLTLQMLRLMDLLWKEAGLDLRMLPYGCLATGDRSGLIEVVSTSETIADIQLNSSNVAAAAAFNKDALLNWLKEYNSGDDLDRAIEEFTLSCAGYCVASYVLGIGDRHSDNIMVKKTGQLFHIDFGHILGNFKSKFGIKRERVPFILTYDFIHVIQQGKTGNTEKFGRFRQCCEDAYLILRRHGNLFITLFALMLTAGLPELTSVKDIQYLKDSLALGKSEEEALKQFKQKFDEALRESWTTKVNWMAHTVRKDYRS

SMILES: COc1ccc(-c2ccc3ncc4c(c3c2)n(-c2ccc(N3CCNCC3)c(C(F)(F)F)c2)c(=O)n4C)cn1 [BGT-226 FREE BASE]
- IC50 [1]: 38 nM
- IC50 (SCC-4): 7.4 nM
- IC50 [2]: 7.4 nM
- IC50 (KB): 7.4 nM

SMILES: COc1c(OCCCCCC(=O)NO)ccc2c1N=C(NC(=O)c1ccccc1)N1CCN=C21
- IC50 [3]: 50 nM
- IC50 (Histone deacetylase 1): 2.98 nM

SMILES: CCn1c(=O)c(-c2cc[nH]n2)cc2c(C)nc(N)nc21 [VOXTALISIB]
- IC50 [1]: 9 nM
- IC50 [4]: 43 nM

SMILES: Cn1cc(CNCC2CCN(c3ncc(C(=O)NO)cn3)CC2)c2ccccc21 [QUISINOSTAT]
- IC50 [5]: 39 nM
- IC50 [6]: 19 nM
- IC50 [7]: 54 nM
- IC50 [8]: 2.8 nM

SMILES: O=C(NO)c1ccc(/C=N/NC(=O)c2ccnc(-c3ccccc3)n2)cc1
- IC50 [9]: 18.7 nM

SMILES: COc1ncc(-c2cc(OCCCCCCC(=O)NO)c3nc(N)nc(C)c3c2)cc1F
- IC50 [3]: 42 nM
- IC50 (Histone deacetylase 1): 1.4 nM

SMILES: COc1ncc(-c2ccc3nccc(-c4ccnnc4)c3c2)cc1NS(=O)(=O)c1ccc(F)cc1F [OMIPALISIB]
- IC50 [10]: 0.04 nM
- IC50 [11]: 0.3 nM

SMILES: COc1ncc(-c2cc(OCCN(C)c3ncc(C(=O)NO)cn3)c3nc(N)nc(C)c3c2)cc1C
- IC50 [3]: 226 nM
- IC50 (Histone deacetylase 1): 1.3 nM

SMILES: O=C(NOCCOCCOCCOCCN1CCN(c2nc(N3CCOCC3)nc(-n3c(C(F)F)nc4ccccc43)n2)CC1)c1ccc(F)c(F)c1Nc1ccc(I)cc1F
- IC50 [12]: 182 nM

SMILES: Cc1c(Cc2cccc(N(C)S(=O)(=O)CCCNCCCCCC(=O)N3CCN(c4nc(N5CCOCC5)nc(-n5c(C(F)F)nc6ccccc65)n4)CC3)c2)c(=O)oc2cc(OC(=O)N(C)C)ccc12
- IC50 [13]: 172 nM
- inhibition [14]: 35%
- inhibition [15]: 35%
- inhibition at 10 µM (A549): 50%
- inhibition at 25 µM (PANC-1): 50%
